Laboratory results: publication PMC12508063, “Chloroindazole based estrogen receptor β ligands with favorable pharmacokinetics promote functional remyelination and visual recovery” (Scientific Reports, 2025)
Values joined by “and” are separate entries in the source; they are usually repeats but may differ in a detail not shown here. Equal entries are not always repeated. Structures can show the parent of a compound that is named as a salt.

How the values were obtained:
[1] = tested on: co-cultures of primary cortical neurons and OPCs; assay: Axon myelination in co-cultures of primary cortical neurons and OPCs; type: cell-based, mouse; conditions: K102, K110 10 nM; Clemastine, Bazedoxifene 500 nM; 5 days
[2] = target: CYP3A4 (Homo sapiens, UniProt P08684); assay: in vitro
[3] = target: T1, ERα (Homo sapiens, UniProt P03372); assay: ER reporter gene assay in HEK 293 T cells (ER-luciferase reporter); type: cell-based; conditions: for Reporter gene assay raw data, ERa: 4 replicate columns
T1 construct: expressed in transfected cells; host or cells: HEK 293 T cells
T1 sequence (P03372 1-595): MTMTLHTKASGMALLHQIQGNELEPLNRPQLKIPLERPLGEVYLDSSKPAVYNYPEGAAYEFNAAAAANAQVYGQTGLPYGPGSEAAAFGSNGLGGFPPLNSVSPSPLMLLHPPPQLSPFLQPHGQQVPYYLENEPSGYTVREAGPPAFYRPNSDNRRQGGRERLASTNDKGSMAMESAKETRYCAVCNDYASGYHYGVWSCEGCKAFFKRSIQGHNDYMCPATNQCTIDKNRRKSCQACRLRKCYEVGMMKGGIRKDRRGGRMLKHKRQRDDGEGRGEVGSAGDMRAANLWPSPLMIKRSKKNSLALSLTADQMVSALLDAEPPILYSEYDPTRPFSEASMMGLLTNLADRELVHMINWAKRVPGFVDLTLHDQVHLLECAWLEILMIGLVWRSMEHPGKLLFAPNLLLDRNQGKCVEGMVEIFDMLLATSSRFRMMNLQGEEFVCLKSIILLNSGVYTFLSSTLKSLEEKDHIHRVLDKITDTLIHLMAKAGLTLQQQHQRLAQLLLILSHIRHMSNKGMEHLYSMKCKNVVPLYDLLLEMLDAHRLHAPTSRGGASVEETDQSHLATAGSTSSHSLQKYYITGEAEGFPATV

[4] = target: T2, ERβ (Homo sapiens, UniProt Q92731); assay: as above; type: cell-based; conditions: for Reporter gene assay raw data, ERb: ERb data block (head r19), 4 replicate columns; for ERb reporter gene assay raw data (response): four replicate columns per compound
T2 construct: expressed in transfected cells; host or cells: HEK 293 T cells

[5] = target: CYP2D6 (Homo sapiens, UniProt P10635); assay: CYP inhibition; conditions: human, probe Dextromethorphan
[6] = target: CYP2C9 (Homo sapiens, UniProt P11712); assay: CYP inhibition; conditions: human
[7] = Plasma protein binding (human)
[8] = Stability in human plasma; type: in vitro ADME
[9] = Plasma protein binding (mouse)

T2 sequence (Q92731 whole entry, species assumed): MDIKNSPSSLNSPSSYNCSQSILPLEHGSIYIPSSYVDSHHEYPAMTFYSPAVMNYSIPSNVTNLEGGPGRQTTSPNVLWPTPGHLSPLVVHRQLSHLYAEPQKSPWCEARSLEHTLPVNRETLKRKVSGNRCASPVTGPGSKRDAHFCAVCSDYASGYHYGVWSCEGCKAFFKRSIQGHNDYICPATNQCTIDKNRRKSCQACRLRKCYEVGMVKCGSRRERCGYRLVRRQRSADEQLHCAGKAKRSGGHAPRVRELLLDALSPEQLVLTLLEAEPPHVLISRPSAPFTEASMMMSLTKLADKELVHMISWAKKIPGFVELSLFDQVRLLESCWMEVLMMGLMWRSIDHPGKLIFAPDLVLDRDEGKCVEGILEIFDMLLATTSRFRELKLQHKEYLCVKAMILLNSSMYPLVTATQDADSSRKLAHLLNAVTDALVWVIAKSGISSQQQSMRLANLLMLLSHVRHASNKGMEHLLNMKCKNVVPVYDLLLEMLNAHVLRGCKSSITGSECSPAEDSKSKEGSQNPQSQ
Sequence of CYP3A4 (P08684 whole entry): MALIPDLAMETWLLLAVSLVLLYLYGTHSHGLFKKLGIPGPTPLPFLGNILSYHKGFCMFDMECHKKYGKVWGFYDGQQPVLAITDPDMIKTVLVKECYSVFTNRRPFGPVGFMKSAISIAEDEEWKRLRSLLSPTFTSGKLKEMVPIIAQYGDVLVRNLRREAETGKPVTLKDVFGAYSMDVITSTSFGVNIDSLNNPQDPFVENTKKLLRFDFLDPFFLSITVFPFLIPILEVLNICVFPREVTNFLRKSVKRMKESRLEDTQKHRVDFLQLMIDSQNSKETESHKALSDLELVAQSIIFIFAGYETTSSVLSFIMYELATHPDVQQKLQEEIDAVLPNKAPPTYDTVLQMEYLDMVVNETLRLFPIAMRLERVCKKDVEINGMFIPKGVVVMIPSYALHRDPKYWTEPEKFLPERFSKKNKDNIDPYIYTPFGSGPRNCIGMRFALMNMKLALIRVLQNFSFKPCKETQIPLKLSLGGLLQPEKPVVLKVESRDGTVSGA
Sequence of CYP2C9 (P11712 whole entry): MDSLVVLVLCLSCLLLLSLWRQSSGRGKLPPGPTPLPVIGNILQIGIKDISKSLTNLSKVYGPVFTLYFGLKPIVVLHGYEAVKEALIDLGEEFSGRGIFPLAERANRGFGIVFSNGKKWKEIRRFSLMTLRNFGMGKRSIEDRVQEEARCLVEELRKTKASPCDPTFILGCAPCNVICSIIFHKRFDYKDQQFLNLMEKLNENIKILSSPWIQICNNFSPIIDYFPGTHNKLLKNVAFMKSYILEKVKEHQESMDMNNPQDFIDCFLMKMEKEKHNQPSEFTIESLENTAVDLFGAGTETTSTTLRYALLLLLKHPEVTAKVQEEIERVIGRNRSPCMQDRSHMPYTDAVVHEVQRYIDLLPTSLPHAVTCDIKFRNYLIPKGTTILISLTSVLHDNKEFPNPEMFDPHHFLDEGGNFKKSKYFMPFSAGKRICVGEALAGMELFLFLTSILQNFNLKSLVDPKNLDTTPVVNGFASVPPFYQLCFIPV
Sequence of CYP2D6 (P10635 whole entry): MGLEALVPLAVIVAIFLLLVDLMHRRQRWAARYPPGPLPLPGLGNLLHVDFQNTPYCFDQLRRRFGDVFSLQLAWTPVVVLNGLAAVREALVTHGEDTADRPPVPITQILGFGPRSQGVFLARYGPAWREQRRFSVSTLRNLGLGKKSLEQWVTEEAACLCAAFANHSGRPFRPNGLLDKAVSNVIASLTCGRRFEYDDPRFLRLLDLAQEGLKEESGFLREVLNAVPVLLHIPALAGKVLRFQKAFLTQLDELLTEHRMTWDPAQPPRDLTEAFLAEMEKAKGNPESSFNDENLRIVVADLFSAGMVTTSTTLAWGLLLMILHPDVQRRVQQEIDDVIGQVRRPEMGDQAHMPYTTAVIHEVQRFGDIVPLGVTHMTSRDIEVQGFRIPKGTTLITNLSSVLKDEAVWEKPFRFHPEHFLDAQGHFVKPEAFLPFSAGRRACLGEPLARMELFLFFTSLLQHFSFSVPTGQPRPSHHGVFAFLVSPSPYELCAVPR

Compound: CN1CCC[C@@H]1CCO[C@](C)(c1ccccc1)c1ccc(Cl)cc1 [Clemastine, Clemastine fumarate]
- OL processes wrapping axons [1]: significant increase

Compound: CC(=O)N1CCN(c2ccc(OCC3COC(Cn4ccnc4)(c4ccc(Cl)cc4Cl)O3)cc2)CC1 (stereo not shown) [Ketoconazole]
- inhibition at 10 µM ([2]; CYP Inhibition Percentage CYP3A4-M): 95.5%
- inhibition at 10 µM ([2]; CYP Inhibition Percentage CYP3A4-T): 92.5%

Compound: CCCc1c(-c2ccc(O)cc2)nn(-c2ccc(O)cc2)c1-c1ccc(O)cc1 [PPT, propylpyrazoletriol]
- Reporter gene assay raw data, ERa ([3]; Log M -6, first ERa data block (head r2)): 86.0824 and 79.2296 and 78.3082 and 79.1573
- Reporter gene assay raw data, ERa ([3]; Log M -6, second ERa data block (head r34)): 87.9608 and 88.617 and 93.8527 and 87.2476
- Reporter gene assay raw data, ERa ([3]; Log M -6.47756, first ERa data block (head r2)): 90.8624 and 88.5783 and 89.3316 and 78.0129
- Reporter gene assay raw data, ERa ([3]; Log M -6.47756, second ERa data block (head r34)): 88.252 and 85.7322 and 87.7049 and 87.7177
- Reporter gene assay raw data, ERa ([3]; Log M -6.95468, first ERa data block (head r2)): 87.1769 and 84.3715 and 90.3303 and 89.4496
- Reporter gene assay raw data, ERa ([3]; Log M -6.95468, second ERa data block (head r34)): 95.811 and 91.5253 and 94.4371 and 90.1172
- Reporter gene assay raw data, ERa ([3]; Log M -7.4318, first ERa data block (head r2)): 90.4114 and 87.987 and 94.8392 and 90.7082
- Reporter gene assay raw data, ERa ([3]; Log M -7.4318, second ERa data block (head r34)): 106.107 and 97.2934 and 83.08 and 92.8748
- Reporter gene assay raw data, ERa ([3]; Log M -7.91009, first ERa data block (head r2)): 85.6554 and 95.12 and 98.5558 and 94.3071
- Reporter gene assay raw data, ERa ([3]; Log M -7.91009, second ERa data block (head r34)): 95.0594 and 87.5842 and 88.9618 and 84.8971
- Reporter gene assay raw data, ERa ([3]; Log M -8.3851, first ERa data block (head r2)): 92.5458 and 88.4315 and 85.0988 and 85.7612
- Reporter gene assay raw data, ERa ([3]; Log M -8.3851, second ERa data block (head r34)): 94.3547 and 89.3596 and 80.8197 and 80.3933
- Reporter gene assay raw data, ERa ([3]; Log M -8.86328, first ERa data block (head r2)): 84.8361 and 86.8057 and 82.3746 and 77.2465
- Reporter gene assay raw data, ERa ([3]; Log M -8.86328, second ERa data block (head r34)): 85.9296 and 87.1693 and 76.3853 and 76.3319
- Reporter gene assay raw data, ERa ([3]; Log M -9.34008, first ERa data block (head r2)): 74.7989 and 75.6545 and 77.292 and 82.2909
- Reporter gene assay raw data, ERa ([3]; Log M -9.34008, second ERa data block (head r34)): 84.5588 and 86.4988 and 76.9768 and 80.3165
- Reporter gene assay raw data, ERa ([3]; Log M -9.81816, first ERa data block (head r2)): 61.8395 and 65.1501 and 66.4827 and 65.905
- Reporter gene assay raw data, ERa ([3]; Log M -9.81816, second ERa data block (head r34)): 75.5533 and 73.0444 and 68.3421 and 69.495
- Reporter gene assay raw data, ERa ([3]; Log M -10.2941, first ERa data block (head r2)): 40.0072 and 40.9439 and 38.9576 and 38.1761
- Reporter gene assay raw data, ERa ([3]; Log M -10.2941, second ERa data block (head r34)): 46.869 and 47.8915 and 37.7547 and 39.1778
- Reporter gene assay raw data, ERa ([3]; Log M -10.7721, first ERa data block (head r2)): 19.4359 and 14.8698 and 17.3697 and 15.2983
- Reporter gene assay raw data, ERa ([3]; Log M -10.7721, second ERa data block (head r34)): 13.881 and 18.514 and 18.2618 and 16.0774
- Reporter gene assay raw data, ERa ([3]; Log M -11.248, first ERa data block (head r2)): 4.705 and 3.999 and 3.885 and 4.444
- Reporter gene assay raw data, ERa ([3]; Log M -11.248, second ERa data block (head r34)): 6.356 and 4.574 and 4.487 and 4.951
- ERa reporter gene assay raw data (response) ([3]; Log M -13, four replicate columns per compound): 0.8253 and -0.8253 and 1.478 and -1.478
- Reporter gene assay raw data, ERb ([4]; Log M -6): 19.5014 and 20.0849 and 23.8882 and 22.6897
- ERb reporter gene assay raw data (response) ([4]; Log M -6): 21.485 and 20.205 and 17.3019 and 20.855
- Reporter gene assay raw data, ERb ([4]; Log M -6.47756): 16.4485 and 15.2513 and 19.8755 and 17.389
- ERb reporter gene assay raw data (response) ([4]; Log M -6.47756): 18.9594 and 20.0074 and 15.2776 and 15.7954
- Reporter gene assay raw data, ERb ([4]; Log M -6.95468): 10.4714 and 10.5487 and 14.4972 and 14.256
- ERb reporter gene assay raw data (response) ([4]; Log M -6.95468): 18.4622 and 14.9797 and 13.6041 and 14.8139
- Reporter gene assay raw data, ERb ([4]; Log M -7.4318): 5.476 and 4.22 and 5.578 and 6.583
- ERb reporter gene assay raw data (response) ([4]; Log M -7.4318): 10.9473 and 9.898 and 9.008 and 8.195
- Reporter gene assay raw data, ERb ([4]; Log M -7.91009): 1.07 and -0.6207 and 3.16 and 0.9592
- ERb reporter gene assay raw data (response) ([4]; Log M -7.91009): 6.169 and 4.563 and 6.678 and 4.2739
- Reporter gene assay raw data, ERb ([4]; Log M -8.3851): 0.7593 and -1.643 and 0.4997 and -2.03
- ERb reporter gene assay raw data (response) ([4]; Log M -8.3851): 3.945 and 3.96 and 6.88 and 1.445
- Reporter gene assay raw data, ERb ([4]; Log M -8.86328): -0.4322 and -1.466 and 2.716 and -1.501
- ERb reporter gene assay raw data (response) ([4]; Log M -8.86328): 5.736 and 3.2685 and 3.216 and 2.057
- Reporter gene assay raw data, ERb ([4]; Log M -9.34008): -0.1098 and -1.507 and 1.45 and -0.6901
- ERb reporter gene assay raw data (response) ([4]; Log M -9.34008): 3.967 and 2.823 and 2.379 and 1.871
- Reporter gene assay raw data, ERb ([4]; Log M -9.81816): -0.5451 and -0.7163 and 0.1509 and -1.511
- ERb reporter gene assay raw data (response) ([4]; Log M -9.81816): 1.577 and 2.9115 and 0.9432 and -0.07211
- Reporter gene assay raw data, ERb ([4]; Log M -10.2941): -1.084 and -0.1568 and -0.6795 and -0.3425
- ERb reporter gene assay raw data (response) ([4]; Log M -10.2941): 1.736 and 0.3306 and 0.3765 and -0.321
- Reporter gene assay raw data, ERb ([4]; Log M -10.7721): -1.226 and -1.1541 and -1.046 and -1.761
- ERb reporter gene assay raw data (response) ([4]; Log M -10.7721): -0.8597 and 0.03179 and -1.5452 and -1.38
- Reporter gene assay raw data, ERb ([4]; Log M -11.248): -0.3317 and 0.5222 and -1.104 and -1.502
- ERb reporter gene assay raw data (response) ([4]; Log M -11.248): -0.3358 and 0.6884 and 0.7035 and 0.7906
- ERb reporter gene assay raw data (response) ([4]; Log M -13): 0.5566 and -0.5566 and 0.8119 and -0.8119

Compound: C=C[C@H]1C[N@@]2CC[C@H]1C[C@@H]2[C@@H](O)c1ccnc2ccc(OC)cc12 [Quinidine]
- inhibition at 10 µM [5]: 92.7%

Compound: Nc1ccc(S(=O)(=O)Nc2ccnn2-c2ccccc2)cc1 [Sulfaphenazole]
- inhibition at 10 µM [6]: 93.9%

Compound: CC(=O)CC(c1ccccc1)c1c(O)c2ccccc2oc1=O (stereo not shown) [Wafarine]
- Protein Binding (% Bound) Human [7]: 98.68%
- % Remaining at 6 hr in Human Plasma [8]: 111.24%
- Protein Binding (% Bound) Mouse [9]: 93.11%
